Columns and labels:
Dictyostelium cells = assay: Micropipette aspiration cortical tension, Dictyostelium; assay type: cell-based, Dictyostelium discoideum
Method: (§1) Micropipette aspiration was used for cortical tension and creep response measurements. Confocal imaging was performed on a Zeiss 510 Meta with a 63× (numerical aperture [NA] 1.4) objective (Carl Zeiss, Jena, Germany). Epifluorescence and TIRF imaging was performed in a 22° C. temperature controlled room with an Olympus IX81 microscope using a 40× (NA 1.3) or 60× (NA 1.49) objective and a 1.4× optovar (Olympus, Center Valley, Pa.), as previously described. Image analysis was performed with ImageJ (rsb.info.nih.gov/ij).
The instrumental and experimental setups have been previously described (Effler J C, et al., 2006; Kee Y-S, et al., 2013). Micropipette aspiration assays were all carried out in growth media with 0.1% DMSO. For cortical tension measurements of Dictyostelium cells, pressure was applied to the cell cortex with a micropipette (2-3 m radius, Rp) to the equilibrium pressure (ΔP) where the length of the cell inside the pipette (Lp) was equal to Rp. The effective cortical tension (Teff) was calculated by applying the Young-Laplace equation: ΔP=2Teff(1/Rp-1/Rc), where Rc is the radius of the cell and ΔP is the equilibrium pressure when Lp=Rp (Derganc J, et al., 2000; Octtaviani E, et al., 2006). For creep tests on mammalian strains, a constant aspiration stress was applied over 60 s. The micropipette radius was 3.5-4.5 m. For quantification, the Lp/Rp ratio values was measured every two seconds and plotted as a function of time. A10.7 and HEK293 cells could only be aspirated at a low pressure range (0.15 nN/μm^2), while HPDE, ASPC-1, and HL-60 cells could be aspirated at higher pressure ranges (0.25 nN/μm^2) because they were stiffer.

human myosin IIB = target: T1, human myosin IIB (Homo sapiens, UniProt P35580); assay: In vitro myosin assembly assay; assay type: biochemical; details: n=3
T1 construct: human myosin IIB (residues 1729-1976); 6xHis (N); mCherry (N); made in house; host or cells: E. coli BL-21 Star (DE3)
Text: (§2) The sedimentation assays were used to assess myosin II assembly in cells. The assembly assay used purified proteins (N-terminal 6×His tag (SEQ ID NO: 1), fused to the mCherry fluorophore, fused to the assembly domains of Dictyostelium myosin II (residues 1533-1823), human myosin IIA (residues 1722-1960), and human myosin IIB (residues 1729-1976), and 6×His-tagged (SEQ ID NO: 1) fused Dictyostelium 14-3-3). Purified chicken nonmuscle IIB heavy meromyosin (HMM) was used for in vitro motility.
(§3) Bacterial expression plasmids coding for an N-terminal 6×His tag (SEQ ID NO: 1), fused to the mCherry fluorophore, fused to the assembly domains of Dictyostelium myosin II (residues 1533-1823), human myosin IIA (residues 1722-1960), or human myosin IIB (residues 1729-1976) were generated using standard cloning techniques.
(§4) In vitro assembly of myosin was conducted according to the method of Zhou et al, 2010 (Zhou Q et al., 2010), with a number of modifications. The protein concentration for each species in the tube was increased to […] to ensure that the smaller protein was adequately visible by Coomassie Blue staining, and the incubation time and temperature was adjusted to 30 min at the physiological temperature for each myosin species (22° C. for Dictyostelium myosin, 37° C. for human myosins). These temperatures were also used during the centrifugation step.

human myosin IIA = target: T2, human myosin IIA (Homo sapiens, UniProt P35579); assay: In vitro myosin assembly assay; assay type: biochemical; details: n=3
T2 construct: human myosin IIA (residues 1722-1960); 6xHis (N); mCherry (N); made in house; host or cells: E. coli BL-21 Star (DE3)
Text: as §2, §3, §4

[1] = test system: chicken non-muscle IIB (NMIIB) HMM; assay: In vitro motility assay (gliding actin filaments); assay type: biochemical; details: 500 nM each alone; 250 nM each in 1:1 ratio
Text: as §2
The chicken non-muscle IIB (NMIIB) HMM construct (residues 1-1228, GenBank™ accession number M93676, no splice insert) was purified as previously described (Norstrom M F, et al., 2010). Motility assays were performed at 22° C. and imaged on Zeiss Axiovert 200 microscope with an Andor Luca camera. The flow cells were constructed using a glass slide, two pieces of double-sided tape, and nitrocellulose-coated coverslip. Flow cells were incubated with 0.05 mg/ml green fluorescent protein antibodies (MP Biomedicals, 0.05 mg/ml in assay buffer (AB) without DTT: 25 mM KCl, 25 mM Imidazole·HCl, pH 7.5, 1 mM K·EGTA, 4 mM MgCl2; 2 min incubation time), followed by a bovine serum albumin block (1 mg/ml in AB—as above with 10 mM DTT; 6 min incubation time). NMIIB was added to the flow cell at a concentration of 420 nM and incubated for 2 min. […]

myosin II = target: T3, myosin II (Dictyostelium discoideum, UniProt P08799); assay: Myosin II cortical localization by SIM, TIRF and confocal imaging; assay type: cell-based
T3 construct: expressed in transfected cells; host or cells: Dictyostelium discoideum myoII null cells rescued with GFP-myosin II
Method: as §1
Imaging conditions during primary screen are described above. All other image analysis was performed as previously described (Kee Y S, et al., 2012). Cells were transferred from Petri dishes (with 0.1% DMSO incubation in growth media of 4 hrs) to imaging chambers and allowed to adhere for 20 min in growth media with 0.1% DMSO. After the cells adhered, the growth media was replaced with 2-(N-morpholino)ethanesulfonic acid (MES) starvation buffer (50 mM MES, pH 6.8, 2 mM MgCl2, 0.2 mM CaCl2) with 0.1% DMS. Confocal imaging was performed on aZeiss 510 Meta with a 63× (numerical aperture [NA] 1.4) objective (Carl Zeiss, Jena, Germany). Epifluorescence and TIR imaging was performed in a 22° C. temperature controlled room with an Olympus IX81 microscope using a 40× (NA 1.3) or 60× (NA […]) objective and a 1.4× optovar (Olympus, Center Valley, Pa.), as previously described. Image analysis was performed with ImageJ (rsb.info.nih.gov/ij). Many data sets were independently analyzed by multiple investigators.

T3 sequence (P08799 whole entry): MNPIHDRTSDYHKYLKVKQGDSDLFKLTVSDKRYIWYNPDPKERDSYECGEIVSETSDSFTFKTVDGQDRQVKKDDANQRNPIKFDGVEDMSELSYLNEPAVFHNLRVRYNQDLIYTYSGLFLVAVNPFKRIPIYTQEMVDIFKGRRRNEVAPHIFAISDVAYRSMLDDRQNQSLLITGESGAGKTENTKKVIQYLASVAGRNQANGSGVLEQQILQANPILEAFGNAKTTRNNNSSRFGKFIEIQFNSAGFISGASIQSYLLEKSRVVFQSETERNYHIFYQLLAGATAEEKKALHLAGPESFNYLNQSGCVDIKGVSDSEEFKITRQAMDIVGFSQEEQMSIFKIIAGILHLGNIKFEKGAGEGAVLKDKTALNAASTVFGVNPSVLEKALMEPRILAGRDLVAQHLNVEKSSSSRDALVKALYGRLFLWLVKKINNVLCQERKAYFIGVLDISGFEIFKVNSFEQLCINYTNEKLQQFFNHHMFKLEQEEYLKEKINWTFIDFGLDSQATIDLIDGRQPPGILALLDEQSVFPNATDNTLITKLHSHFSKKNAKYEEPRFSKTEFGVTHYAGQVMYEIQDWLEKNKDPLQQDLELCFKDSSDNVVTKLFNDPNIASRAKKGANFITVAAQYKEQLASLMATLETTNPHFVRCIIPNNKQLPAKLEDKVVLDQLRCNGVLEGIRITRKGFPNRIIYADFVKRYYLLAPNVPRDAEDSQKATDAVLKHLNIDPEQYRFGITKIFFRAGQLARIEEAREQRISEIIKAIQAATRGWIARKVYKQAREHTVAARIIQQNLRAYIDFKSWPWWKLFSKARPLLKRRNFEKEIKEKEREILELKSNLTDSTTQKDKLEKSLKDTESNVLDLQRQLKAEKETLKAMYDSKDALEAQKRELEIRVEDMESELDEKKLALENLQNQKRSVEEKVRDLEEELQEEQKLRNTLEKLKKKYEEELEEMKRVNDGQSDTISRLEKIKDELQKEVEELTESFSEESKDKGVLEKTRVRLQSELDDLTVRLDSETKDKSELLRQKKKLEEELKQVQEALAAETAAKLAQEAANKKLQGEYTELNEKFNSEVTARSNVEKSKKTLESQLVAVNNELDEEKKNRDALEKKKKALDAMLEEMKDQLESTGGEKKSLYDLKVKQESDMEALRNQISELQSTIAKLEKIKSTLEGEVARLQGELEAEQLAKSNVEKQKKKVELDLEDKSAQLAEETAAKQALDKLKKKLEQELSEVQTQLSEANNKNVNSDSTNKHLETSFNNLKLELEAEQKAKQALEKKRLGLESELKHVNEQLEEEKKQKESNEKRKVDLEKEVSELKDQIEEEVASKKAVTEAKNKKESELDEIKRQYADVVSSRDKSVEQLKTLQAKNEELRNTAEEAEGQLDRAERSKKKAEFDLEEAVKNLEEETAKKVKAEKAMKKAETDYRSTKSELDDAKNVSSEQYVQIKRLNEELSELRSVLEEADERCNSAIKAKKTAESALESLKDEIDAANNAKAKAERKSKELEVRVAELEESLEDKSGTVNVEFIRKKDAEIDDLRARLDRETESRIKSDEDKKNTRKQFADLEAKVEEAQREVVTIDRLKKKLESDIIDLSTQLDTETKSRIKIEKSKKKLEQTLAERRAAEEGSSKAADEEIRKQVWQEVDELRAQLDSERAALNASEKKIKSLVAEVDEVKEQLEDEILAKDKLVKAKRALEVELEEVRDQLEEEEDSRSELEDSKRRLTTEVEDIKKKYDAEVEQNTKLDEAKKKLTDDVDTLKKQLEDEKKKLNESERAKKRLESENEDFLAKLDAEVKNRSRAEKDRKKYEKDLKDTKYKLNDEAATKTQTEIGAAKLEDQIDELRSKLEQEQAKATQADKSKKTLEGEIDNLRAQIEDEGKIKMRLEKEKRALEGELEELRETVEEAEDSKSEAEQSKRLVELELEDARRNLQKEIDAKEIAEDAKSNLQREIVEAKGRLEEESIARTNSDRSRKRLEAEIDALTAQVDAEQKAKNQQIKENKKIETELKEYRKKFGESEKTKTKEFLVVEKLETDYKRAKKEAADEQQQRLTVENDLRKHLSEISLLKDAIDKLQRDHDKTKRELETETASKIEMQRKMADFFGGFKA
T2 sequence (P35579 1722-1960): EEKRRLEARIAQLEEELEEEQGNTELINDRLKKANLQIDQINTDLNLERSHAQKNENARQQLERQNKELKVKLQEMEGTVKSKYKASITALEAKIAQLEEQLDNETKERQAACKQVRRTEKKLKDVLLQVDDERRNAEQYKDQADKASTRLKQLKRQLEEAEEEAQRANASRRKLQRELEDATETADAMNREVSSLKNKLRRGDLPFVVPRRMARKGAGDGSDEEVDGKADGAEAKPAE
T1 sequence (P35580 1729-1976): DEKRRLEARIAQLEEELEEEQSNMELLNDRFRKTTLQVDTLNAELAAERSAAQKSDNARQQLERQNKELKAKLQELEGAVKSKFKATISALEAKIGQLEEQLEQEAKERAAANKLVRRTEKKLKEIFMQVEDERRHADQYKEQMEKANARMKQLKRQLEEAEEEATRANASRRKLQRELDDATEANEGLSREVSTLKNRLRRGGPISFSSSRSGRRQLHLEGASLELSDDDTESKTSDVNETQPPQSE

SMILES | effect on cortical tension (Dictyostelium cells; WT cells) | in vitro assembly vs DMSO control (human myosin IIB) | in vitro assembly vs DMSO control (human myosin IIA) | non-muscle myosin IIB velocity (gliding filament velocity of actin filaments) [1] | changes in myosin II cortical distribution (TIRF) (myosin II; 500 nM time course) | change in cortical tension, myosin II null cells (Dictyostelium cells; myoI null cells as printed) | change in cortical tension, S456L myosin cells (Dictyostelium cells; myoII::GFP-S456L cells) | time to significant localization of GFP-myosin II (myosin II; 500 nM) | time for myosin II localization to revert to pre-treatment levels after removal (myosin II; 500 nM, washout) | increase in myosin II localization at the cortex by TIRF (myosin II; 500 nM, within 10 min) | subset of cells with BTFs accumulated into ribbon-like rings (myosin II; TIRF) | increase in myosin II at the cortex (myosin II; TIRF time course) | time for myosin II bipolar thick filaments to accumulate at the cortex (myosin II; TIRF time course) | time to steady state of myosin II cortical accumulation (myosin II; TIRF time course) | myosin II accumulation in cortexillin I deleted cells (myosin II; cortI::GFPmyo cells) | cortical enrichment of myosin II (cortex to cytoplasm) (myosin II; each degradation product tested)
Nc1ccc(Cl)c(Cl)c1 [3,4-DCA, 3,4-dichloroaniline] | had no effect | unaffected | unaffected | no significant effect | Neither 3,4-DCA nor the urea result in changes in myosin II cortical distribution | – | – | – | – | – | – | – | – | – | – | –
CC(=O)c1ccc(O)cc1 [4-HAP, 4-hydroxyacetophenone] | – | unaffected | unaffected | no significant effect | – | did not experience a similar shift in mechanics | did not have a change in cortical tension | ≤ 10 min | ≤ 15 min | 2 fold | 15% | 2.5 fold | ≤ 5 min | 15 min | abolished | 4-HAP alone drives myosin II relocalization

— patent publication US11834401B2, “Treating and preventing diseases by modulating cell mechanics” (THE JOHNS HOPKINS UNIVERSITY, priority 2013, dated 2023)
